Assay results published in patent US20250120967A1, “TYROSINE KINASES INHIBITORS AND USES THEREOF” (GREAT NOVEL THERAPEUTICS BIOTECH & MEDICALS CORPORATION, priority 2023, published 2025).

What was measured:
Assay in all cases: Tyrosine kinase inhibition assay
Type in all cases: biochemical
Settings in all cases: single concentration 1.0 μM, read-out: percent inhibition
BMX = biological target: T1, BMX (Homo sapiens, UniProt P51813)
T1 sequence (P51813 1-675): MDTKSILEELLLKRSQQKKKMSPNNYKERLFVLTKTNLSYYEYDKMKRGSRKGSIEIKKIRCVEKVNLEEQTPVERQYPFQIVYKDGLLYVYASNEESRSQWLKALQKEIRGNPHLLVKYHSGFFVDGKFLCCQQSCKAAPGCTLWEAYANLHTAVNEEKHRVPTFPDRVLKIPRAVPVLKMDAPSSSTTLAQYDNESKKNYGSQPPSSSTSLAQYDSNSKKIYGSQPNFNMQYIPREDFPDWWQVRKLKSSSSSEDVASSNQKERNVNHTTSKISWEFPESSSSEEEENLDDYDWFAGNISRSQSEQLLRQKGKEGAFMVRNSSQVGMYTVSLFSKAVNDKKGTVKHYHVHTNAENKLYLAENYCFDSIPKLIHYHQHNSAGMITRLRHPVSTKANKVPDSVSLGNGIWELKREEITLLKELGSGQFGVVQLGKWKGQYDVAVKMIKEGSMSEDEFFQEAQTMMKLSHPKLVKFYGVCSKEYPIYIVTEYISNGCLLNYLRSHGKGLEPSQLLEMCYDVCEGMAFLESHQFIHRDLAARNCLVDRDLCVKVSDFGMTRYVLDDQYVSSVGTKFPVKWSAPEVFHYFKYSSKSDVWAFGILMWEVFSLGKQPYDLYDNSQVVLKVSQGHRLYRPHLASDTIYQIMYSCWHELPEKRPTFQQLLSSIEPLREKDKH
Method in brief: (§1)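 Single-point screen, 1.0 μM compound, 1% DMSO final; ATP at apparent Km. Buffer: 50 mM HEPES pH 7.5, 0.01% BRIJ-35, 10 mM MgCl2, 1 mM EGTA. Z′-LYTE readout, % inhibition; hit = >80%.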

MATK (HYL) = biological target: T2, MATK (HYL) (Homo sapiens, UniProt P42679)
T2 sequence (P42679 1-507): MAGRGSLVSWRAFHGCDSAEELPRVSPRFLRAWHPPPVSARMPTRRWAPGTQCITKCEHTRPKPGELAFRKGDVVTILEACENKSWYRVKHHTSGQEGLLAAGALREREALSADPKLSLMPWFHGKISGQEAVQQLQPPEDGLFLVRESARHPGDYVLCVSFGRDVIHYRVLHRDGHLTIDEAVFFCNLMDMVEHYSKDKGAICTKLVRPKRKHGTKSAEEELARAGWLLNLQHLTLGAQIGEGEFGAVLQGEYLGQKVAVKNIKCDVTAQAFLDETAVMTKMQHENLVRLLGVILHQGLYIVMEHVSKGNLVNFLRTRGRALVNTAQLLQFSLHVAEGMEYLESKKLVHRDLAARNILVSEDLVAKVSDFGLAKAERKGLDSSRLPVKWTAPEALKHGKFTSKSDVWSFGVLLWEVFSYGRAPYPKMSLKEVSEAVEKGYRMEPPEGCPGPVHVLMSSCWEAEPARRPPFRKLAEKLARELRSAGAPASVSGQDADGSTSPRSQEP
Method in brief: as §1

MAPK10 (JNK3) = MAPK10 (JNK3) (Homo sapiens, UniProt P53779)
Sequence of MAPK10 (JNK3) (P53779 whole entry): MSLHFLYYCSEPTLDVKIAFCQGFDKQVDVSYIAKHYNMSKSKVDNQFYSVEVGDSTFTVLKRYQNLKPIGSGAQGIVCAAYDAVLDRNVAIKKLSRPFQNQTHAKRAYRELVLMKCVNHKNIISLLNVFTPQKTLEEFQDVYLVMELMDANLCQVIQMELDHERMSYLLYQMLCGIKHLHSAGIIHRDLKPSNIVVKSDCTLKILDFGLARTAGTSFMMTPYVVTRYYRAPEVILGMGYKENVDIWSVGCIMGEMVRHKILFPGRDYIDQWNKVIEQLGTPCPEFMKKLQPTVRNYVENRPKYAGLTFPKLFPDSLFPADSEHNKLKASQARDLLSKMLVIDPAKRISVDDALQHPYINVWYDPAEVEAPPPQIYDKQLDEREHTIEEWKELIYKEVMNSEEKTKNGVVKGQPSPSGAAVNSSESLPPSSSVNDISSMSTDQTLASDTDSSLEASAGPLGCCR
Method in brief: as §1

TYK2 = TYK2 (Homo sapiens, UniProt P29597)
Sequence of TYK2 (P29597 whole entry): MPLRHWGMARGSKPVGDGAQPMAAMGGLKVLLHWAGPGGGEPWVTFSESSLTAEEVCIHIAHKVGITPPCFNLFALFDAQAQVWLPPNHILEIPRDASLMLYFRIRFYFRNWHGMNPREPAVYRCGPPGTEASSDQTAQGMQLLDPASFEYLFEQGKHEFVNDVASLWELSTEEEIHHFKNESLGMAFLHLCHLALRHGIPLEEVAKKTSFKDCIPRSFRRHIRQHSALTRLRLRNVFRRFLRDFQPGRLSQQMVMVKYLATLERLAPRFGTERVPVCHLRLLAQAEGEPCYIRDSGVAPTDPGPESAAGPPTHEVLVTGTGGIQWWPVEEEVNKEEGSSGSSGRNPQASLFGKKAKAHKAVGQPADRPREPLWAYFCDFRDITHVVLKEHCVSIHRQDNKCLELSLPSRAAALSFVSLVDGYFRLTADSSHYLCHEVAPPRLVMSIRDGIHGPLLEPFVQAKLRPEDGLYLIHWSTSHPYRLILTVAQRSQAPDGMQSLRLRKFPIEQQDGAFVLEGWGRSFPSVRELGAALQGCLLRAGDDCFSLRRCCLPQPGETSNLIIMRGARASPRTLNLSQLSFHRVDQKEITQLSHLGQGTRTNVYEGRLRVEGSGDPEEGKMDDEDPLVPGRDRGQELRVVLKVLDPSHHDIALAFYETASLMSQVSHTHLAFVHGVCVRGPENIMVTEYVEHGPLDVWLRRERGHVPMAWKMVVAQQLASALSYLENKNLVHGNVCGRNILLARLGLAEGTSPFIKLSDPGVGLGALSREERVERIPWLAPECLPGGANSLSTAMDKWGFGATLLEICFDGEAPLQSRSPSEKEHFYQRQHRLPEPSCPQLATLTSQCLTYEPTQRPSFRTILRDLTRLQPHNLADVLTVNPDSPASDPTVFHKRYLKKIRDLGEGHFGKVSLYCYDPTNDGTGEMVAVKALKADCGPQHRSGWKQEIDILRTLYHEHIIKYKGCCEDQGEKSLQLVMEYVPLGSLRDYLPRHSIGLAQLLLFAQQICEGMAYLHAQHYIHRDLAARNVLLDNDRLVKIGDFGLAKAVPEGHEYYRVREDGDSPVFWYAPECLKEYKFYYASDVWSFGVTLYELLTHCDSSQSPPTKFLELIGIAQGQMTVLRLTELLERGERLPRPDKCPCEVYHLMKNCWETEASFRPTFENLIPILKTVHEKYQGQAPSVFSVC
Method in brief: as §1

DDR1 = DDR1 (Homo sapiens, UniProt Q08345)
Sequence of DDR1 (Q08345 19-913): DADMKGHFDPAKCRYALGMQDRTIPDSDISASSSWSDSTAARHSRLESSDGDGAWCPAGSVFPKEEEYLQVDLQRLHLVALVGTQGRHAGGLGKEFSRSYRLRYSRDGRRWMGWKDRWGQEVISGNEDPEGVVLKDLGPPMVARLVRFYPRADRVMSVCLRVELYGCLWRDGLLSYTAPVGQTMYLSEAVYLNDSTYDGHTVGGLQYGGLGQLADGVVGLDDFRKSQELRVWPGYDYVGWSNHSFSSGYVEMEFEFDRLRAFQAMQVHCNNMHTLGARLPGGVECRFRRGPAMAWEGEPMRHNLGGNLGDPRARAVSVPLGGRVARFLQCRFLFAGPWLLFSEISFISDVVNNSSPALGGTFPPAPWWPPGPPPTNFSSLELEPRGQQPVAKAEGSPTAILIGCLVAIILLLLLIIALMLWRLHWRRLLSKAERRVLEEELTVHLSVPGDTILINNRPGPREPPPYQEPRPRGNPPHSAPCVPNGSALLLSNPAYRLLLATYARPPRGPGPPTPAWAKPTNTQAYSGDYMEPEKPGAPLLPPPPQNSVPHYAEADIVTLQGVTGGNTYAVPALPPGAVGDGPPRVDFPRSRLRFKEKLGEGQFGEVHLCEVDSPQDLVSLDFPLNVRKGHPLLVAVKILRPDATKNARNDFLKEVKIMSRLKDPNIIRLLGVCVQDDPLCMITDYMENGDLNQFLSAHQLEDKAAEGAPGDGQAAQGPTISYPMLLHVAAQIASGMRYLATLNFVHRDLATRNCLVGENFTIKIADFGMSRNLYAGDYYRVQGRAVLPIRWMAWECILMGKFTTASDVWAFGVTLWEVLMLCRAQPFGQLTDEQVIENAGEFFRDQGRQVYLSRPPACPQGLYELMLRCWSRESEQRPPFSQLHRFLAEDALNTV
Method in brief: as §1

EPHA1 = biological target: T3, EPHA1 (Homo sapiens, UniProt P21709)
T3 sequence (P21709 26-976): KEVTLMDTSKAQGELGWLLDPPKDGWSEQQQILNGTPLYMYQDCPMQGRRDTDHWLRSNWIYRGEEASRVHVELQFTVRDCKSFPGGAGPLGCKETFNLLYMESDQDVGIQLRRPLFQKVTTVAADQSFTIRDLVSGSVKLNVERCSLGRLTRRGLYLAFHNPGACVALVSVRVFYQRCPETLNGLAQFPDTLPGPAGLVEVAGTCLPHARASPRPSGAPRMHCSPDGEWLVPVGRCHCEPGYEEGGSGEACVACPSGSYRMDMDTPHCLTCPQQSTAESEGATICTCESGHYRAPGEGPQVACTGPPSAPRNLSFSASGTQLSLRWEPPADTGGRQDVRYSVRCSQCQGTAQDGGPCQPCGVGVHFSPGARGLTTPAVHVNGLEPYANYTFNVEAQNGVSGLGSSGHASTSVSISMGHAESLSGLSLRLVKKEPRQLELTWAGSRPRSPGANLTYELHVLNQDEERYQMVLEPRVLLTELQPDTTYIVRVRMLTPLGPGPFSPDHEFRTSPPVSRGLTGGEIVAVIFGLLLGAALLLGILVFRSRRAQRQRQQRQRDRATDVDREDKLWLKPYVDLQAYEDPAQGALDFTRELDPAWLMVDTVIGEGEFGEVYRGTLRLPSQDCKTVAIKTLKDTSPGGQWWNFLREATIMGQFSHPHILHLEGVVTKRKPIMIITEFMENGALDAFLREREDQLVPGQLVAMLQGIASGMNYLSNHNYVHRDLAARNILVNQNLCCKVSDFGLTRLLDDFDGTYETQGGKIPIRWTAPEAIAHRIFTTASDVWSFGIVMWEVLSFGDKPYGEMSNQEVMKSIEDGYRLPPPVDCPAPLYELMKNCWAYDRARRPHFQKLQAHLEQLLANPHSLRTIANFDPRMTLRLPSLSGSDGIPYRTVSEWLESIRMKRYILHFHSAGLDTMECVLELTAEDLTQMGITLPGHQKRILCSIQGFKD
Method in brief: as §1

BLK = BLK (Homo sapiens, UniProt P51451)
Sequence of BLK (P51451 whole entry): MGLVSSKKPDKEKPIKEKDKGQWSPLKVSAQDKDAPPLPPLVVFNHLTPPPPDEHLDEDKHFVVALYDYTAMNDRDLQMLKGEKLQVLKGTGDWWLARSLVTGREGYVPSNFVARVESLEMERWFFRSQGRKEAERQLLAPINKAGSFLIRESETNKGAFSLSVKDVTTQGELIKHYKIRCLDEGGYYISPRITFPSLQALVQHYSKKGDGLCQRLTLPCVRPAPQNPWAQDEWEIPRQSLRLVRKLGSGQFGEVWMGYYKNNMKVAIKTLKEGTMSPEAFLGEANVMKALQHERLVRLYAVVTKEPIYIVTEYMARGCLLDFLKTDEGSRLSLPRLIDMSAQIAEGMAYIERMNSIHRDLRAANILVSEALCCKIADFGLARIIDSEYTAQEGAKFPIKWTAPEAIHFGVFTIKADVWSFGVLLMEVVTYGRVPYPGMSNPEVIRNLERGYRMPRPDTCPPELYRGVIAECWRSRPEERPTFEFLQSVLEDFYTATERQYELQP
Method in brief: as §1

COc1cc2nccc(Oc3ccc(NC(=O)C4(C(=O)Nc5ccc(F)cc5)CC4)cc3F)c2cc1Oc1ccc(N)cc1F [Cbo-23]
inhibition at 1 µM (BMX): 42% | inhibition at 1 µM (MATK (HYL)): 8% | inhibition at 1 µM (MAPK10 (JNK3)): -3% | inhibition at 1 µM (TYK2): 7% | inhibition at 1 µM (DDR1): 92% | inhibition at 1 µM (EPHA1): 96% | inhibition at 1 µM (BLK): 93%

COc1cc2nccc(Oc3ccc(NC(=O)C4(NC(=O)c5ccc(F)cc5)CC4)cc3F)c2cc1Oc1ccc(N)cc1F [Cbo-10]
inhibition at 1 µM (BMX): 33% | inhibition at 1 µM (MATK (HYL)): 5% | inhibition at 1 µM (MAPK10 (JNK3)): 8% | inhibition at 1 µM (TYK2): 9% | inhibition at 1 µM (DDR1): 50% | inhibition at 1 µM (EPHA1): 84% | inhibition at 1 µM (BLK): 80%

COc1cc2nccc(Oc3ccc(NC(=O)C4(NC(=O)c5ccc(F)cc5)CC4)cc3F)c2cc1OC [Cbo-02, N-(1-((4-((6,7-diMethoxyquinolin-4-yl)oxy)-3-fluorophenyl)carbamoyl)cyclopropyl)-4-fluorobenzamide]
inhibition at 1 µM (BMX): 22% | inhibition at 1 µM (MATK (HYL)): 7% | inhibition at 1 µM (MAPK10 (JNK3)): 4% | inhibition at 1 µM (TYK2): 7% | inhibition at 1 µM (DDR1): 51% | inhibition at 1 µM (EPHA1): 29% | inhibition at 1 µM (BLK): 61%

COc1cc2nccc(Oc3ccc(NC(=O)C4(NC(=O)c5ccc(F)cc5)CC4)cc3F)c2cc1Oc1c(F)cc(N)cc1F [Cbo-14]
inhibition at 1 µM (BMX): 42% | inhibition at 1 µM (MATK (HYL)): 8% | inhibition at 1 µM (MAPK10 (JNK3)): 4% | inhibition at 1 µM (TYK2): 16% | inhibition at 1 µM (DDR1): 53% | inhibition at 1 µM (EPHA1): 80% | inhibition at 1 µM (BLK): 80%

COc1cc2nccc(Oc3ccc(NC(=O)C4(C(=O)Nc5ccc(F)cc5)CC4)cc3)c2cc1OC [Cabozantinib, reference compound]
inhibition at 1 µM (BMX): 36% | inhibition at 1 µM (MATK (HYL)): 10% | inhibition at 1 µM (MAPK10 (JNK3)): 3% | inhibition at 1 µM (TYK2): 9% | inhibition at 1 µM (DDR1): 100% | inhibition at 1 µM (EPHA1): 74% | inhibition at 1 µM (BLK): 83%
